The values below come from patent US7893108B2, “Antiviral methods and compositions” (priority 2004, dated 2011).

SMILES strings stand for the structures. Entries after “also recorded” stand apart in the source; their conditions may differ. Where two headings read alike, the source gives them in different places.

The target in one data set is T1, UL54 plus GST-UL44ΔC290 (Human cytomegalovirus, UniProt P16790).
T1 construct: GST-UL44ΔC290 fusion protein, which contains the N-terminal 290 residues of HCMV UL44; made in house; host or cells: UL54: in vitro transcription/translation; GST-UL44ΔC290: E. coli BL21 (DE3)pLysS
T1 sequence (P16790 1-290, stated change not applied): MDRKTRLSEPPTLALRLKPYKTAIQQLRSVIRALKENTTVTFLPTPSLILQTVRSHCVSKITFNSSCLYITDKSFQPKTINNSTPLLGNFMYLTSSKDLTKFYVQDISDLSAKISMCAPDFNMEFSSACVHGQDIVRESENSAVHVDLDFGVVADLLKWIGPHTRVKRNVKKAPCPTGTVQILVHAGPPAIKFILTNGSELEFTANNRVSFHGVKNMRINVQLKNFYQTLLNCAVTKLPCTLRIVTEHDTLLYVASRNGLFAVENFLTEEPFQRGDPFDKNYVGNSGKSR
In words: long-chain DNA synthesis by UL54 in the presence of UL44. The format is biochemical, HCMV. The following applies: for inhibition of long-chain DNA synthesis by UL54 and UL44: dose-response; for inhibition of long-chain DNA synthesis by UL54 and UL44 at one concentration: 40 μM. How it is done: To analyze the ability of the compounds to interfere with functional UL54-UL44 interactions, we tested their ability to inhibit long-chain DNA synthesis by UL54 in the presence of UL44 employing a poly(dA)-oligo(dT)12-18 template-primer.
DNA polymerase assays. The effects of compounds were tested in an assay that measures long-chain DNA synthesis as described in Loregian et al. (Loregian et al., 2004a), with 5 μl of in vitro-transcribed and -translated UL54 plus 800 fmol of GST-UL44ΔC290 in the absence or in the presence of various amounts of each compound.
The effect of the compounds was also tested in an assay that measures long chain (Lc) DNA synthesis as described in Loregian et al., J. Virol. […]

Another data set addresses UL54 (Human cytomegalovirus, UniProt P08546). In words: basal DNA polymerase activity of UL54 alone (filter-based assay). The format is biochemical. The following applies: 0, 4, 20, 40, 100 μM; 20 min at 37° C.; read-out: IC50 for inhibition of the activity of UL54 alone.
The subject of the next data set is HCMV AD169. In words: virus yield reduction assay. The format is cell-based, human cytomegalovirus. How it is done: Next, we tested the effects of selected compounds and of GCV as a control in viral yield assays, which measure the titer of virus progeny produced following infection at relatively high multiplicity. In these assays, the viral titer was measured at two different times points post-infection (p.i.): at 96 hrs, when the release of virus progeny is increasing, and at 120 hrs, when the titer of virus progeny after a single cycle of replication reaches peak levels (Stinski, 1983).
(§1) For yield reduction assays, HFF cells were plated at 2×10^4 cells per well in 96-well cluster dishes, incubated overnight, and infected with HCMV AD169 at a multiplicity of infection (MOI) of 1. After virus adsorption for 2 hr at 37° C., cells were washed and incubated with 200 μl of fresh media containing test compounds at increasing drug concentration. Plates were incubated for 3 or 5 days at 37° C. and subjected to one cycle of freezing and thawing, and titers were determined by transferring 100-μl aliquots from each of the wells to a fresh 96-well monolayer culture of HFF cells followed by 1:5 serial dilution across the plate. Cultures were incubated for 7 days, cells were stained, and the numbers of plaques were determined as described above.
as §1, with “The effect of the compounds was assessed in an assay of virus yield. In this assay, cells are infected at a relatively high multiplicity of infection (about one per cell) and then drug is added. The virus produced at the different times post infection is measured. 120 hrs. is about the peak titer. This assay was conducted as follows.” for “For yield reduction assays,”, “20,000” for “2×10^4”, “an MOI” for “a multiplicity of infection (MOI)”, “0.1, 0.3, 1, 3, 10, 30 μM” for “increasing”

In data set [1] the target is T2, full-length UL54 / UL44 interaction (Human cytomegalovirus, UniProt P16790).
T2 construct: made in house; host or cells: baculovirus expression; proteins provided by H. S. Marsden (Institute of Virology, Glasgow)
T2 sequence (P16790 whole entry): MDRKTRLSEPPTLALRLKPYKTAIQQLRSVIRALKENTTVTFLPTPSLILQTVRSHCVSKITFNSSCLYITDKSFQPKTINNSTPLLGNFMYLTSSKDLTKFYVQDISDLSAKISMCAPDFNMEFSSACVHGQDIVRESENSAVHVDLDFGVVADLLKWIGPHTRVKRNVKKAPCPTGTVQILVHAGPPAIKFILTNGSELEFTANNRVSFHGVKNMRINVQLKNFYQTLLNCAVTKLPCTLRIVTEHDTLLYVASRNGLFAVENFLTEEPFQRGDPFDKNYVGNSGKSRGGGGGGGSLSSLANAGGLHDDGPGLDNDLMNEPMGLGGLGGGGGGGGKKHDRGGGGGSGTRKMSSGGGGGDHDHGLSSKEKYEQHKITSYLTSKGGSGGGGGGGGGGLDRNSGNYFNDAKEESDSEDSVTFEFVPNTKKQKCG
In words: UL54-UL44 interaction ELISA. It counts as binding, HCMV. Particulars: concentrations up to 200 μM. How it is done: In this assay, binding between purified baculovirus-expressed UL54 and UL44, which was tagged with an EEF epitope, was detected using an antibody that recognizes the epitope tag (Loregian et al., 2003).
UL54-UL44 interaction ELISA. This assay was conducted as described in (Loregian et al., 2003), testing various concentrations of each compound. After final washes, the chromogenic substrate 2,2′-azino-bis(3-ethylbenzothiazoline-6-sulphonic acid (ABTS, Pierce) in citrate phosphate buffer (pH 4.0) containing 0.01% hydrogen peroxide was added and absorbance was read at 405 nm on a Victor plate reader (Wallac).
Another assay that was used to test the effect of the compounds on the interaction of UL44 and UL54 is an ELISA interaction assay, which measures the interaction of the two full length proteins with each other. This assay was conducted as described in Loregian et al., J. Virol. 2003, 77:8336-8344, testing different concentrations (0, 3.12, 6.25, 12.5, 25, 50, 100, 200 μM) of each compound.
On the technique in general: ELISA stands for enzyme-linked immunosorbent assay.

Another data set has as its system HCMV strain AD169. As to the kind of experiment: plaque reduction assay. It counts as cell-based, human cytomegalovirus. The following applies: HFF cells; 0-30 μM. As for the experimental part: Antiviral assays. Plaque reduction assays were performed essentially as follows: HFF (human foreskin fibroblast) cells were seeded at 2×10^5 cells per well in 24-well cluster dishes. The next day, cells were infected with HCMV (strain AD169) at 80 PFU per well in DMEM plus 5% fetal bovine serum (FBS) at 37° C. Two hours post-infection, the inocula were removed, cells were washed, and media containing various drug dilutions, 5% FBS, and 0.6% methylcellulose were added. All drug dilutions were tested at least in duplicate. After incubation at 37° C. for 10-11 days, cell monolayers were stained with crystal violet and plaques were counted under light microscopy.
The effect of the compounds was assessed in a plaque reduction assay that measures the number of plaques formed in the presence of varying concentrations of a drug, as follows. HFF were seeded at 2×10^5 cells per well in 24-well cluster dishes. The next day, they were infected with HCMV AD169 at 80 PFU per well in DMEM plus 5% FBS at 37° C. Two hr post-infection, the inocula were then removed, cells were washed, and media containing selected drug dilutions (0, 0.1, 0.3, 1, 3, 10, 30 μM), and 5% FBS and 0.6% methylcellulose were added. All drug dilutions were tested at least in duplicate. After incubation at 37° C. for 10-11 days, cell monolayers were stained with crystal violet and plaques were enumerated under light microscopy.

Another data set concerns HFF cells. In words: XTT cytotoxicity assay. It counts as cell-based, human. How it is done: (§2) Cytotoxicity assays. HFF cells were seeded at 2×10^4, 4×10^3, or 10^3 cells per well into 96-well plates and, after a 3-hr incubation to allow cell attachment, were treated for 24, 72, or 120 hr, respectively, with various concentrations of each compound in duplicate. Cell viability was then determined with an XTT assay (Roche Molecular Biochemicals) according to the manufacturer's protocol by using a Victor plate reader (Wallac).
(§3) The cytotoxicity of the compounds was measured in an XTT assay. XTT is a compound that is converted to a product that can be measured […], but only by viable cells. This assay is as follows. HFF (human foreskin fibroblasts) cells were seeded at different concentrations into 96-well plates and treated with various concentrations (from 0 to 200 μM) of each compound in duplicate for 24, 72 or 120 hr. Cell viability was then determined with an XTT assay (Roche Molecular Biochemicals) according to the manufacturer's protocol by using a Victor plate reader (Wallac).
Background: Tetrazolium assays rely on reduction of a dye to a coloured formazan, in cell work by metabolically active cells.

The next data set in a line: XTT cytotoxicity assay. It counts as cell-based, human. The following applies: human. As for the experimental part: as §2, §3
The conditions of data set [2]: literature; cited from earlier work.

UL54, sequence (P08546 whole entry): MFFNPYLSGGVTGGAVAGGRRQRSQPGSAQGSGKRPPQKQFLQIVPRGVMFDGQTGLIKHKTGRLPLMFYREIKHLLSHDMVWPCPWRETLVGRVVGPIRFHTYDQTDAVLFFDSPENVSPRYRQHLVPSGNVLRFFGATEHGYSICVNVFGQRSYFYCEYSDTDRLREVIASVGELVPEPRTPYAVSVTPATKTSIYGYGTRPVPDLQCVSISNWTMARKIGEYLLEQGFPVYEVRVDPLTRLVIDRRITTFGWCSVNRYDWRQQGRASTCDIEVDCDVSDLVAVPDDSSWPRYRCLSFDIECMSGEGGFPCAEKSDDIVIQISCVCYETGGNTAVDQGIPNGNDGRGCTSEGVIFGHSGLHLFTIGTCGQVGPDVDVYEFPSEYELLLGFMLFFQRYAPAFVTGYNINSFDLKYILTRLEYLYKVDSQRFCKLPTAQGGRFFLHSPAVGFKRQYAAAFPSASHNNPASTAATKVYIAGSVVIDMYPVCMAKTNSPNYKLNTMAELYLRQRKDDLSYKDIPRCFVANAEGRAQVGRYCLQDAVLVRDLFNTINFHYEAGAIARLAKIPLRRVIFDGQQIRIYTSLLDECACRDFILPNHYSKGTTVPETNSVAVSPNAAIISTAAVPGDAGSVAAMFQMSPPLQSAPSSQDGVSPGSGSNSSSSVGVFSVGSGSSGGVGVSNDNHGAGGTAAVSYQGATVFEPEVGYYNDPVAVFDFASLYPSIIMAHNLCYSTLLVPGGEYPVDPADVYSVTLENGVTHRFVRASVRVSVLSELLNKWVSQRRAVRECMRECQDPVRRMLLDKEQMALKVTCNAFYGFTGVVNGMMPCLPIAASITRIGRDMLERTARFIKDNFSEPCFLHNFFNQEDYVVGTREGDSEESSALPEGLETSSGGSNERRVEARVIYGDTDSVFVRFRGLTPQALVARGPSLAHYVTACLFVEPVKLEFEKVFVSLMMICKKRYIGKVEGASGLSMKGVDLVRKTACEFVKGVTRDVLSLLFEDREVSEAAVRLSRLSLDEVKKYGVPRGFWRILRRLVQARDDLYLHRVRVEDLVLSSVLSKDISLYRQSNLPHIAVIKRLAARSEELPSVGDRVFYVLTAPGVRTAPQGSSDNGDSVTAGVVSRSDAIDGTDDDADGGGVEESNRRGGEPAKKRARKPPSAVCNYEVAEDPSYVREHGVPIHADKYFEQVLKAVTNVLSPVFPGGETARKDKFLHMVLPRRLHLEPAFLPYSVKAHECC

As to `CCOc1cc(C2C(C#N)=C(N)Oc3n[nH]c(-c4ccc(OC)cc4)c32)cc([N+](=O)[O-])c1O` (stereo not shown) [AL2], on UL54 plus GST-UL44ΔC290, the “inhibition of long-chain DNA synthesis by UL54 and UL44” value was “little or no inhibition”. Also, the IC50 – broadly, the concentration needed to halve the response being measured – on UL54 was 95 µM. In addition, the “effect on virus yield / HCMV replication” value in the data set with HCMV AD169 is “little or no effect”.

As to `O=c1c2cccc3cccc(c32)c2nc3ccccc3n12` [AL12], on UL54 plus GST-UL44ΔC290, the “inhibition of long-chain DNA synthesis by UL54 and UL44 at one concentration” value is recorded as “severely decreased formation of long DNA products”; the “inhibition of long-chain DNA synthesis by UL54 and UL44” value was “relatively low IC50s”. Also, in data set [1], the “inhibition of the UL54-UL44 physical interaction” value is “potent”. In addition, the “IC50s in plaque reduction assay” value in the data set on HCMV strain AD169 is given as “relatively low IC50s”. Besides, in the data set on HCMV AD169 (HFF cells), the “effect on virus yield / HCMV replication” value is recorded as “relatively low IC50s”. In the data set on HFF cells, the “cytotoxic concentration relative to antiviral concentration” value is 7-500 fold and the “cytotoxicity” value was “relatively high CC50's”.

As to `Nc1ccc(N)c2c1C(=O)c1c(O)ccc(O)c1C2=O` [AL18], on UL54 plus GST-UL44ΔC290, the “inhibition of long-chain DNA synthesis by UL54 and UL44 at one concentration” value is reported as “severely decreased formation of long DNA products”; the “inhibition of long-chain DNA synthesis by UL54 and UL44” value is given as “relatively low IC50s”. For the same compound, the “inhibition of the UL54-UL44 physical interaction” value in data set [1] was “potent”. Also, the “IC50s in plaque reduction assay” value in the data set with HCMV strain AD169 is recorded as “relatively low IC50s”. The “effect on virus yield / HCMV replication” value in the data set with HCMV AD169 is “relatively low IC50s; also recorded: submicromolar”. Moreover, in the data set with HFF cells (120 hrs, HFF cells), the cytotoxic concentration (CC50) (in general, the concentration at which the toxic effect on the cells reaches its halfway point) was found to be 200 µM. In addition, the “cytotoxicity” value in the data set with HFF cells (HFF cells, 24, 72 or 120 hr) was “relatively high CC50's”.

For `CNC(=S)NN=Cc1ccc(OC)c(Br)c1` [AL20], the “inhibition of long-chain DNA synthesis by UL54 and UL44” value on UL54 plus GST-UL44ΔC290 is “little or no inhibition”. In addition, the “inhibition of the UL54-UL44 physical interaction” value in data set [1] is given as “did not significantly inhibit”. For the same compound, the “IC50s in plaque reduction assay” value in the data set with HCMV strain AD169 is listed as “relatively low IC50s”. The “effect on virus yield / HCMV replication” value with HCMV AD169 was “relatively low IC50s”. Further, in the data set on HFF cells, the “cytotoxic concentration relative to antiviral concentration” value is listed as 7-500 fold and the “cytotoxicity” value was “relatively high CC50's”.

In the case of `Nc1nc(O)c2ncn(COC(CO)CO)c2n1` [GCV, ganciclovir, reference compound], the CC50 in the data set “XTT cytotoxicity assay” was approximately 200 µM.

Consider `Nc1ccn(C[C@@H](CO)OCP(=O)(O)O)c(=O)n1` [cidofovir], for which the cytotoxic activities reported in data set [2] is 360 µM.
